# Source: US8143226B2, “Tyrosine kinase receptor antagonists and methods of treatment for breast cancer” (The Regents of the University of California, priority 2005, dated 2012)
# Legend:
# HER2/neu = target: T1, HER2/neu (Rattus norvegicus, UniProt P06494); assay: HER2/neu autophosphorylation in MCNeuA cells (western blot); assay type: cell-based, mouse; conditions: read-out: IC50, ligand-independent tyrosine phosphorylation of HER2/neu
# T1 construct: expressed in transfected cells; host or cells: MCNeuA mouse mammary carcinoma cells (MMTV/neu transgene), in culture or grown as tumours in neuTg mice
# T1 sequence (P06494 23-1257): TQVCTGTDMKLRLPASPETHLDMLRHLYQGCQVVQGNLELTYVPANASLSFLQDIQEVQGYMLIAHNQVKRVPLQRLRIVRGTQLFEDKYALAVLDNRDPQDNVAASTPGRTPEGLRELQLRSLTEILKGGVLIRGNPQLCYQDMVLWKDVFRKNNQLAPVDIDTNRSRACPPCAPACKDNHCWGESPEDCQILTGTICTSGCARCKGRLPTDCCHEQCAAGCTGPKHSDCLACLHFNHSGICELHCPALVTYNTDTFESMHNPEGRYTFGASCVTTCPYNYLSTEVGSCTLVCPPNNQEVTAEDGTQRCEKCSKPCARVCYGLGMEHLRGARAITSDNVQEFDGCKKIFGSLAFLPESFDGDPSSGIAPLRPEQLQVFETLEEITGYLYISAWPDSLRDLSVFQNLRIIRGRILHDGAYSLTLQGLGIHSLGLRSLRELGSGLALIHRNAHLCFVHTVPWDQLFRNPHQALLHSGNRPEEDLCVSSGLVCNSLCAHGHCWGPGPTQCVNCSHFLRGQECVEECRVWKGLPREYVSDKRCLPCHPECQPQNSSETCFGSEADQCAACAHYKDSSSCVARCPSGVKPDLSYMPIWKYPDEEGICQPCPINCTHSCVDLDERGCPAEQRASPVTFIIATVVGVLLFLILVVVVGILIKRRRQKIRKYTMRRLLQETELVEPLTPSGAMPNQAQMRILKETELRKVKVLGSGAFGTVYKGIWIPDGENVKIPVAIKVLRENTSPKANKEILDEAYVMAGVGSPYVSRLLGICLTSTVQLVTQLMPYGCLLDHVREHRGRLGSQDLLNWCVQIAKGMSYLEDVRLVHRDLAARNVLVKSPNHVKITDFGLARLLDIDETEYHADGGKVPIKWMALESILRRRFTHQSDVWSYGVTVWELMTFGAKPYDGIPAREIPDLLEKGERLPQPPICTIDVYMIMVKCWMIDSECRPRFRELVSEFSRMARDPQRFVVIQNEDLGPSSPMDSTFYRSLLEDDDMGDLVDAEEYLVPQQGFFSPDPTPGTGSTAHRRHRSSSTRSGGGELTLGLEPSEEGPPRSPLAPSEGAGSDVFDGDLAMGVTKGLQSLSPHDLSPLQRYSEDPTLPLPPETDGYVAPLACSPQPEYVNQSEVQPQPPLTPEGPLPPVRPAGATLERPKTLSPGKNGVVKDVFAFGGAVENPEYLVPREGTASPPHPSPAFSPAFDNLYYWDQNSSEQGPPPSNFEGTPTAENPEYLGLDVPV
# Description: HER2/neu receptor autophosphorylation was determined in serum-starved MCNeuA or SKBR3 cells, which were collected in the basal state, due to the ligand-independent nature of HER2/neu activation. Following a one-hour incubation in serum-free media, soluble extracts of cells were prepared as above. HER2/neu autophosphorylation was determined by a western blot that employed a phosphospecific antibody, pNeu(Tyr1248) as described above.
# [1] = test system: SH-SY5Y, SHEP and Kelly neuroblastoma cells; assay: CyQUANT assay for neuroblastoma cell growth; assay type: cell-based, human
# Description: CyQUANT assay for cell growth. Cells were plated on four 96-well tissue culture plates, in DMEM/10% calf serum at a density of 8000 cells/well and incubated for 24 h. In one set of experiments, the medium was switched to serum free DMEM supplemented with 1% bovine serum albumin (to provide osmotic support). IGF-I (10 nM) was added to some samples on a daily basis for up to 3 days. […] The media from one plate was immediately removed, and the plate was frozen at −80° C. This plate served as the baseline for the experiment. Single plates were frozen at 24, 48, and 72 h following addition of drugs. DNA content of each well was quantified by staining with CyQUANT according to the manufacturer's instructions and measuring CyQUANT […] with a fluorimeter. Each condition was run in triplicate, and the experiment was repeated three times.
# ERK 1 and 2 = assay: IGF-stimulated ERK phosphorylation in neuroblastoma cells; assay type: cell-based, human; conditions: SH-SY5Y cells, NDGA 1 h, 10 nM IGF-I 15 min
# Description: (§1) Detection of phospho-Akt and phospho-Erk. […] Then, some cultures were treated with 10 nM IGF-I for 15 min. Cultures were immediately placed on ice, the medium was removed, and the cells were lysed in modified RIPA buffer (20 mM Tris, 150 mM NaCl, 1 mM EDTA, 1 mM EGTA, 1% Triton X-100, 0.1% sodium dodecyl sulfate, and 1% deoxycholate). Fifty μg of protein from each sample were separated via SDS-PAGE and transfened to nitrocellulose. Phospho- and total-Akt and -Erk were detected by immunoblotting.
# Akt = assay: IGF-stimulated Akt phosphorylation in neuroblastoma cells; assay type: cell-based, human; conditions: SH-SY5Y and SHEP cells
# Description: as §1
# MCF-7/neo cells = assay: Growth of MCF-7/neo cells with RTK inhibitors, 6 days (CyQuant); assay type: cell-based; conditions: Homo sapiens, MCF7, 144 h, read-out: one half maximal effect on growth
# Description: MCF-7/neo or MCF-7/HER2-18 cells were plated in 96 well plates (4×10^3 cells/well) in 100 μl/well of DMEM-10 medium. […] Media with inhibitors was refreshed on day 3 and the cultures were harvested on day 6. The plates were inverted onto paper towels with gentle blotting to remove growth medium without disrupting adherent cells. Each plate was kept at −80° C. until assayed for cell growth. After thawing the plate at room temperature, 200 μl of CyQuant GR solution was added to each well and the plates were incubated in the dark for five minutes. Fluorescence was measured with a SpectraMax Gemini XS fluorescence microplate reader (Molecular Devices) with 480-nm excitation and 520-nm emission.
# MCF-7/HER2-18 cells = assay: Tamoxifen and/or NDGA growth inhibition of MCF-7/HER2-18 cells (CyQuant); assay type: cell-based; conditions: Homo sapiens
# Description: Cells were estrogen-starved for three days in DMEM containing 10% charcoal-[…]-stripped FCS (CDSS) prior to their plating in 96 well plates. Cells were plated in 100 μl of the same media, allowed to adhere overnight, and then were switched to DMEM+10% CDSS supplemented with 100 pM estrogen. […] The media and inhibitors were refreshed on day 3, the cultures were harvested on day 6, and a CyQuant assay was performed as described above.
# IGF-1R [2] = target: T2, IGF-1R (Homo sapiens, UniProt P08069); assay: IGF-1R phosphorylation ELISA in MCF-7/HER2-18 cells; assay type: cell-based; parameters: endogenous in cells; host or cells: MCF-7/HER2-18; conditions: 3 nM IGF-I 10 min
# T2 sequence (P08069 31-1367): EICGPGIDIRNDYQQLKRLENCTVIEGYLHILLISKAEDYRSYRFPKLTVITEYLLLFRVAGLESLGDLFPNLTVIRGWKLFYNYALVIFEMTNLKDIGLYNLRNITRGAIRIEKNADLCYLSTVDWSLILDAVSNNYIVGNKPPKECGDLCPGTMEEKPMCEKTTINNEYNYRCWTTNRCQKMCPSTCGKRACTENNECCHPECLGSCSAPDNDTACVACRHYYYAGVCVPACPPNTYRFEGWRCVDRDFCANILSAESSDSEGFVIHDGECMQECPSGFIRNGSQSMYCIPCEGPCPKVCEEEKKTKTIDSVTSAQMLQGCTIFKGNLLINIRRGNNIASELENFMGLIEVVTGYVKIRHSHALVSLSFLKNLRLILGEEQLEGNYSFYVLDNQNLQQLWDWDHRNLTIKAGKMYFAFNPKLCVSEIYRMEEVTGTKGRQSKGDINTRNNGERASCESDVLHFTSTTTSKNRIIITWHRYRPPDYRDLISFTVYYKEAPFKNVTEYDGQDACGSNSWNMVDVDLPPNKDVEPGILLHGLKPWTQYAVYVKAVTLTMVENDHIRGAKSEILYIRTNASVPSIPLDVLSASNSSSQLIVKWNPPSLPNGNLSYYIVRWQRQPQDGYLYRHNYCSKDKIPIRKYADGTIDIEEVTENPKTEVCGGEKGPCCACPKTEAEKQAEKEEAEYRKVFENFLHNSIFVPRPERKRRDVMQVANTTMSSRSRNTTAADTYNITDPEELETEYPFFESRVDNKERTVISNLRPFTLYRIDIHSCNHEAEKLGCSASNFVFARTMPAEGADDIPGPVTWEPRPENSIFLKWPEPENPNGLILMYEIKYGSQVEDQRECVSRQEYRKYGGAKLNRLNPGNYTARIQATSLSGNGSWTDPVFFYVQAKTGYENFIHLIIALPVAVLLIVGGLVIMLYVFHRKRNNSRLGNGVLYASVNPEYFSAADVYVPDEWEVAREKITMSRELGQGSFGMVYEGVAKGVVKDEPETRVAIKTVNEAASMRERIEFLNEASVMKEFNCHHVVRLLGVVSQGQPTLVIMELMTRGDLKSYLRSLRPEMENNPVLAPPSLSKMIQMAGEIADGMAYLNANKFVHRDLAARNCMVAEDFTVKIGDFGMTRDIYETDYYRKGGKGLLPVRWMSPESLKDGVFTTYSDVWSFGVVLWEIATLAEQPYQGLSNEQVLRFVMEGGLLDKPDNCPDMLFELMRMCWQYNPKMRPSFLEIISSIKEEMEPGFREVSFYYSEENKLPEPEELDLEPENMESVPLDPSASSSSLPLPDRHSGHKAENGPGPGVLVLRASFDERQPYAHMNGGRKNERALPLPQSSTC
# Description: RTK inhibitors were dissolved in DMSO and diluted with culture medium before being added to cells for 1.5 hour at 37° C. The final concentration of DMSO during the incubation was 0.3% . For some studies, cells were also stimulated with 3 nM IGF-I for 10 minutes at 37° C. Reactions were terminated by rapidly aspirating medium and washing cells three times with ice cold PBS. Cells were harvested and solubilized in 50 mM HEPES, 150 mM NaCl, 1% Triton X-100, 1 mM PMSF, and 2 mM vanadate for 1 hour at 4° C. Protein concentrations were determined by BCA assay (Pierce, Rockford, Ill.). […] Briefly, 10 μg lysate protein were added to triplicate wells in a 96-well plate coated with monoclonal antibody to the IGF-IR (IR3; 2 μg/ml), and incubated for 18 hours at 4° C. Plates were washed five times and then HRP-conjugated anti-phosphotyrosine antibody (0.3 μg/ml), diluted in Solution B (50 mM HEPES, pH 7.6, 150 mM NaCl, 0.05% Tween-20, 1 mM PMSF, 2 mM vanadate and 1 mg/ml bacitracin), was added for two hours at 22° C. Plates were washed five times prior to color development with TMB substrate, which was terminated with 1.0 M H3PO4. Values for receptor phosphorylation were determined by measuring absorbance at 450 nm.
# IGF-1R [3] = target: T2, IGF-1R; assay: Tyrosine kinase activity of partially purified IGF-1R on poly Glu4:Tyr1 (ELISA); assay type: biochemical; parameters: made in house; host or cells: CHO cells (CHOIGF-1R / CHO-IGFR), partially purified by wheat germ agglutinin chromatography
# Description: IGF-1 and HER2/neu receptors were partially purified by WGA chromatography of cells overexpressing the protein of interest. To isolate IGF-1R, CHO cells transfected with and overexpressing the human IGF-1R (CHOIGF-1R) were plated in T-150 flasks and grown in DMEM supplemented with 10% fetal calf serum (FCS) until 80% confluent. Cells were harvested in the basal state and solubilized in 50 mM HEPES, 10% glycerol, 1% Triton X-100, 150 mM NaCl, 5 μM EGTA, 0.24 mg/ml aminoethyl-benzensulfonyl fluoride (AEBSF), 10 μg/ml aprotinin, 25 mM benzamidine, 10 μg soybean trypsin inhibitor, and 5 μg/ml leuptin for one hour at 4° C. Samples were centrifuged for 60 minutes at 100,000 g and solubilized extract collected. Rodent HER2/neu receptors were collected from MCNeuA cells crown under identical conditions and processed similarly. Lysates from both cell lines were loaded onto a 1 ml wheat germ agglutin (WGA) column (Pharmacia, Piscataway, N.J.), washed with WGA buffer (50 mM HEPES pH 7.6, 150 mM NaCl, 0.1% Triton X-100, 1 mg/ml bacitracin, and 1 mM PMSF). Receptors were then eluted with WGA buffer supplemented with 0.3 N N-Acetyl-D-glucosamine. WGA fractions containing RTK of interest were determined by SDS page and a western blot that employed antibodies against either the IGF-1R or HER2/neu as appropriate. […]
structure (smiles),measurement,setting,value
"CC(Cc1ccc(O)c(O)c1)C(C)Cc1ccc(O)c(O)c1 (stereo not drawn) [NDGA, nordihydroguaiaretic acid]",IC50,HER2/neu,15 ± 4 µM
same,proliferation in serum-free media with 10 nM IGF-I,"[1]; SH-SY5Y and Kelly cells, up to 72 h",inhibited proliferation
same,proliferation in medium containing 10% serum,"[1]; SH-SY5Y and SHEP cells, up to 72 h",inhibited the proliferation
same,dose that completely blocks neuroblastoma growth in vitro,"[1]; serum and serum-free conditions, several days",15 to 30 µM
same,IGF-stimulated phosphorylation of ERK,ERK 1 and 2,dose-dependent inhibitory effect
same,IGF-stimulated Akt phosphorylation,Akt,dose-dependent inhibition
same,IC50,MCF-7/neo cells,12.5 µM
same,inhibition at 10 µM,MCF-7/HER2-18 cells,9%
same,inhibition at 15 µM,MCF-7/HER2-18 cells,38%
same,IGF-1 stimulated phosphorylation of the IGF-1R,IGF-1R [2],strongly inhibited
same,lowest concentration reducing IGF-1 stimulated tyrosine phosphorylation of poly Glu4:Tyr1,IGF-1R [3]; NDGA 20 minutes prior to 10 nM IGF-1,0.3 µM
same,concentration inhibiting IGF-1-stimulated tyrosine kinase activity of isolated IGF-1R,IGF-1R [3]; summary statement,≤ 10 µM
